Measurements from patent US20130115256A1, “METHODS FOR TREATING OR PREVENTING VASCULAR GRAFT FAILURE” (priority 2010, published 2013).

What was measured:
[1] = system: human saphenous vein (HSV); assay: Sodium nitroprusside-induced relaxation of human saphenous vein in muscle bath; settings: for relaxation (percent relaxation): 100 μM pretreatment, phenylephrine 10^-6 M
Experimental: In preparation for testing vein segment functional viability, HSV rings were weighed and their lengths recorded. To focus on smooth muscle responses, the endothelium was mechanically denuded by rolling the luminal surface of each ring at the tip of a fine vascular forceps before suspension in a muscle bath containing a bicarbonate buffer (120 mM NaCl, 4.7 mM KCl, 1.0 mM MgSO4, 1.0 mM NaH2PO4, 10 mM glucose, 1.5 mM CaCl2, and 25 mM […], pH 7.4) equilibrated with 95% O2 and 5% CO2 at 37° C. The rings were stretched and the length progressively adjusted until maximal tension was obtained. Normalized reactivity was obtained by determining the passive length-tension relationship for each vessel segment. Rings were maintained at a resting tension of 1 g, which produces maximal responses to contractile agonists as previously determined, and equilibrated for 2 hours in buffer. Force measurements were obtained using a Radnoti Glass Technology (Monrovia, Calif.) force transducer (159901A) interfaced with a Powerlab data acquisition system and Chart software (AD Instruments, Colorado Springs, Colo.).
HSV rings were first contracted with 110 mM KCl (with equimolar replacement of NaCl in bicarbonate buffer) and the generated force was measured. 110 mM KCl causes membrane depolarization, leading to contraction of vessels containing functionally viable smooth muscle. After multiple KCl challenges, rings were washed and allowed to equilibrate in bicarbonate solution for 30 min, and then contracted with phenylephrine (PE, 10^−7-10^−6 M). Rings were relaxed with a cumulative log dose of sodium nitroprusside (SNP), a nitric oxide donor, and the force generated was recorded. All rings were again washed and equilibrated in buffer for 15 minutes. Rings were then incubated with either buffer alone or buffer plus 100 μM of MMI-0100 ([…] (SEQ ID NO: 1)) for 2 hours, followed by treatment with the same doses of PE and SNP, and the forces generated again recorded. Measured force was normalized for ring weight and length and percent relaxation was calculated; force generated with 10^−6M of PE was set as 0% relaxation.
The enhancing effect of MMI-0100 ([…]; SEQ ID NO: 1) on smooth muscle relaxation was examined by pre-treating harvested human saphenous vein (HSV) with MMI-0100 ([…]; SEQ ID NO: 1) before SNP treatment. Segments of human saphenous vein (HSV) were equilibrated in a muscle bath and pretreated with a control solution (0.01M phosphate-buffered solution, PBS) or MMI-0100 ([…] (SEQ ID NO: 1); 30 μM, 2 hrs), contracted with norepinephrine. and relaxed with increasing doses of sodium nitroprusside (SNP, 0-1 μM). Percentage of relaxation at 0, 0.01, 0.1, and 1.0 μM of SNP was measured. […]

[2] = system: mouse vein graft (intrathoracic inferior vena cava); assay: Mouse vein graft model; type: in vivo
Experimental: 12-week-old C57BL/6 wild type mice (Harlan) were used for all experiments, as previously described (Muto, A. et al., J. Exp. Med., 2011, 208(3): 561-575, incorporated herein by reference in its entirety). […] Prior to implantation, the vein was treated ex vivo with 100 μM of MMI-0100 ([…] (SEQ ID NO: 1)) peptide solution, or control PBS solution, for 20 minutes at room temperature.
To implant the vein graft, a midline incision was made in the abdomen of a recipient mouse and the infrarenal abdominal aorta was exposed. The abdominal aorta was temporarily occluded with atraumatic micro-clamps and a segment corresponding to the length of the vein graft was excised. The vein was sutured into the arterial circulation using 10-0 nylon in continuous fashion.
Vein grafts were followed postoperatively using the Vevo770® High-Resolution Imaging System (VisualSonics, Toronto, Canada), with weekly measurements of graft wall thickness. At 28 days after surgery, mice were sacrificed to allow explantation of the vein graft. Tissue was either frozen with RNA stabilization reagent (Qiagen) or explanted for paraffin embedding after circulatory flushing with ice-cold PBS followed by 4% paraformaldehyde perfusion-fixation. Vein graft wall thickness, lumen diameter, and outer wall diameter (elastic lamina) were measured in elastin-stained sections using computer morphometry (ImageJ).
Vein graft samples were fixed as described above and harvested for histology. Specimens were embedded in paraffin and cut in cross section (5 μm). Hematoxylin & Eosin, Masson trichrome, and van Gieson elastin staining were performed for all samples. Cells were cultured on gelatin-coated cover slips and fixed with methanol.
All sections were treated for antigen retrieval using 10 mmol/L citrate buffer (pH 6.0) prior to boiling or proteinase K (20 μg/ml) treatment, at room temperature, for 10-15 minutes. Immunohistochemical detection was performed using DAB as well as NovaRED® substrate (Vector). Sections were counterstained with Mayer's Hematoxylin.
The efficacy of MMI-0100 ([…]; SEQ ID NO: 1) in treating intimal hyperplasia in vivo was examined using a mouse model of vein bypass graft. […] The IVC was soaked in a 100 μM solution of MMI-0100 ([…]; SEQ ID NO: 1) at room temperature for 20 minutes prior to implantation into a host (C57BL/6J) mouse to bypass the infrarenal aorta. Five treated and six untreated veins were transplanted for a total of 11 transplanted animals. Vein graft wall thickness was determined using a Vevo7700 ultrasound imaging system at each week. […]

[3] = system: mouse lung endothelial cells (MLEC); assay: Cell apoptosis analysis (annexin V flow cytometry); type: cell-based; settings: any dose; 24 hours
Experimental: The apoptotic effect of MMI-0100 ([…]; SEQ ID NO: 1) on mouse lung endothelial cells (MLEC) was measured at 24 hours after MMI-0100 ([…]; SEQ ID NO: 1) treatment. MLEC were removed from the tissue culture plate by trypsin, and re-suspended at a concentration of 1.0×10^6 cells/ml. Apoptotic cells were detected by AlexaFluor® 488 annexin V/Dead Cell Apoptosis Kit (Invitrogen) using flow cytometry sorting analysis.

YARAAARQARAKALARQLGVAA [MMI-0100]
increase in relaxation compared to HSV pretreated with control solution ([1]; 30 μM, 2 hrs pretreatment, norepinephrine contraction, SNP 0-1 μM, n=3): about 40%
relaxation (percent relaxation) ([1]; 10^-7 M SNP (untreated control 72.768±6.99)): 92.54±3.09
relaxation (percent relaxation) ([1]; 10^-8 M SNP (untreated control 10.825±5.62)): 25.622±6.38
reduced wall thickness compared to control grafts, histological staining ([2]; 100 μM ex vivo 20 minutes, 4 weeks): 72%
F4/80-positive cells infiltrating into vein grafts ([2]; 100 μM ex vivo 20 minutes, 4 weeks, immunohistochemistry): fewer
vein graft wall thickness ratio by ultrasound ([2]; follow-up study, 100 μM ex vivo 20 minutes, 4 weeks (control grafts 4.7-fold)): 2.6 fold
grafted vessel wall thickness relative to the originally harvested IVC ([2]; vein soaked ex vivo in 100 μM for 20 minutes, 4 weeks after graft, ultrasound (control almost five times)): about 2.5 times
EC apoptosis [3]: did not induce EC apoptosis
